# Target: T1, USP28 (His-tagged USP28-FL-mammalian) (Homo sapiens, UniProt Q96RU2)
# T1 construct: Expression of USP28 (1-1077)-TEV-6*His (pTT5 vector); made in house; host or cells: Expi293f cells (pTT5 vector)
# T1 sequence (Q96RU2 1-1077): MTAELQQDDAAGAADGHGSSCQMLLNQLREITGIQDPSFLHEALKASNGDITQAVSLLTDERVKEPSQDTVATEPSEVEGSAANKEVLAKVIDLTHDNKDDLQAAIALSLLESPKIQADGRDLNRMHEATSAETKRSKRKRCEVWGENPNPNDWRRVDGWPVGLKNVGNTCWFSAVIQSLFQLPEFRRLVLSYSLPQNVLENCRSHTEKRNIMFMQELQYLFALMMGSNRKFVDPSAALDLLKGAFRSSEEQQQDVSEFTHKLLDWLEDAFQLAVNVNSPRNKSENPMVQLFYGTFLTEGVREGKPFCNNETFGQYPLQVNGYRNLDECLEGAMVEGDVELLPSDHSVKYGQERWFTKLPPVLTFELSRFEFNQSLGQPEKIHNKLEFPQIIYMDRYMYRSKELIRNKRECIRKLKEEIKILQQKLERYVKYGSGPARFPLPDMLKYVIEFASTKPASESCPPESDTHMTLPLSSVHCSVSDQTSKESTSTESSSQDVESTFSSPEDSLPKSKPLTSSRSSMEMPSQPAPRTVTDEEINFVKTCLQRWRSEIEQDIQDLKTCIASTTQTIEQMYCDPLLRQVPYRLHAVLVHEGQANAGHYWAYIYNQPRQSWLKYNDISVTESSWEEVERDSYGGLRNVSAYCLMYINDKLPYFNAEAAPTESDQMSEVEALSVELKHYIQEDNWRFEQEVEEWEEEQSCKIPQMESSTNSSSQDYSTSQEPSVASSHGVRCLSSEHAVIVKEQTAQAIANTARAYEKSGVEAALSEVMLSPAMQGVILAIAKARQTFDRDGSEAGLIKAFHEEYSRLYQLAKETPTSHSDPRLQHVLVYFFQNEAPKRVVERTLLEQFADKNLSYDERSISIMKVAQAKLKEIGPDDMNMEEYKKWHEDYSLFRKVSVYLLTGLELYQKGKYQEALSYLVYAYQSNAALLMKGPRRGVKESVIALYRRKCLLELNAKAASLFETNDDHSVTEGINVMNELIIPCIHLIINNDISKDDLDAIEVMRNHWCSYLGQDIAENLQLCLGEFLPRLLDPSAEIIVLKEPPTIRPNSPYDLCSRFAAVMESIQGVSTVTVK
# Test: Ubiquitin-Rhodamine 110 Assay for USP28 Activity, Example A-1(a)
# Assay type: biochemical
# Conditions: Ubiquitin-Rhodamine 110 assay, Example A-1(a); read-out: USP28 A-1(a) IC50 range
# Outline: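 Full-length His-tagged USP28 (1-1077, Expi293F-expressed; […]) was preincubated 30 min with compound (25 μM–1.3 nM, 10-point 3-fold) in 20 mM Tris-HCl pH 8.0, 3 mM BME, 0.03% BGG, 0.01% Triton X-100. Ub-Rh110 (25 nM) was then added for 45 min at room temperature, stopped with citric acid, and read by fluorescence (485/535 nm).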
row,Compound,IC50 [nM]
1,"Cc1ccc2c(N)c(C(=O)N[C@@H]3COc4cc(N5C[C@H]6CNC[C@@H]6C5)ccc4C3)sc2n1 [Example 44, 3-amino-N-((S)-7-((3aR,6aR)-hexahydropyrrolo[3,4-c]pyrrol-2(1H)-yl)chroman-3-yl)-6-methylthieno[2,3-b]pyridine-2-carboxamide]",> 2000
2,"O=C(N[C@H]1COc2cc(N3CCNCC3)ccc2C1)c1ccc(NCc2ccccc2)nc1 [Example 52, (R)-6-(benzylamino)-N-(7-(piperazin-1-yl)chroman-3-yl)nicotinamide]",200 to 2000
3,"Cc1ccc2c(N)c(C(=O)N[C@H]3COc4cc(N5C[C@@H]6CC[C@H]5CN6)ncc4C3)sc2n1 [Example 75, N-((R)-7-((1S, 4S)-2 5-diazabicyclo[2.2.2]octan-2-yl)-3,4-dihydro-2H-pyrano[3,2-c]pyridin-3-yl)-3-amino-6-methylthieno[2,3-b]pyridine-2-carboxamide]",1 to 50
4,"Cc1cnc2c(N)c(C(=O)N[C@H]3CCc4nc(N5CC6CC(C5)N6)ccc4C3)sc2n1 [Example 23-11, 7-amino-N-[(6S)-2-{3,6-diazabicyclo[3.1.1]heptan-3-yl}-5,6,7,8-tetrahydroquinolin-6-yl]-3-methylthieno[2,3-b]pyrazine-6-carboxamide]",200 to 2000
5,"Cc1ccc2c(N)c(C(=O)N[C@H]3COc4c(F)c(N5CCNCC5)cc(F)c4C3)oc2n1 [Example 68, (R)-3-amino-N-(5,8-difluoro-7-(piperazin-1-yl)chroman-3-yl)-6-methylfuro[2,3-b]pyridine-2-carboxamide]",200 to 2000
6,"Cc1ccc2c(N)c(C(=O)N[C@H]3COc4cc([C@H]5CCNCC5(F)F)ccc4C3)sc2n1 [Example 69, 3-amino-N-((R)-7-((R)-3,3-difluoropiperidin-4-yl)chroman-3-yl)-6-methylthieno[2,3-b]pyridine-2-carboxamide]",1 to 50
7,"COC[C@H]1CN(c2ccc3c(n2)CC[C@H](NC(=O)c2sc4nc(C)ccc4c2N)C3)C[C@H]1N (single isomer, unassigned) [Example 24-2]",50 to 200
8,"CCn1ccc2cc(C(=O)N[C@H]3COc4c(F)c([C@@H]5CCNC[C@@H]5O)cc(F)c4C3)nnc21 [Example 84, N-((R)-5,8-difluoro-7-((3R,4S)-3-hydroxypiperidin-4-yl)chroman-3-yl)-7-ethyl-7H-pyrrolo[2,3-c]pyridazine-3-carboxamide]",200 to 2000
9,"Cc1cnc2c(N)c(C(=O)N[C@H]3CCc4nc(N5CC6CCC(C5)N6)ccc4C3)sc2n1 [Example 23-13, 7-amino-N-{(6S)-2-{3,8-diazabicyclo[3.2.1]octan-3-yl}-5,6,7,8-tetrahydroquinolin-6-yl]-3-methylthieno[2,3-b]pyrazine-6-carboxamide]",1 to 50
10,"C[C@H](Nc1ccc(C(=O)N[C@H]2COc3cc(N4CCNCC4)ccc3C2)cn1)c1ccccc1 [Example 53, 6-(((S)-1-phenylethyl)amino)-N-((R)-7-(piperazin-1-yl)chroman-3-yl)nicotinamide]",> 2000
11,"Cc1cnc2c(N)c(C(=O)N[C@H]3COc4c(C#N)c(N5CCNCC5)cc(F)c4C3)sc2n1 [Example 60, (R)-7-amino-N-(8-cyano-5-fluoro-7-(piperazin-1-yl)chroman-3-yl)-3-methylthieno[2,3-b]pyrazine-6-carboxamide]",50 to 200
12,"Cc1ccc2c(N)c(C(=O)N[C@H]3COc4cc(N5C[C@H]6CC[C@@H]5CN6)ncc4C3)sc2n1 [Example 76, N-((R)-7-((1 R,4R)-2,5-diazabicyclo[2.2.2]octan-2-yl)-3,4-dihydro-2H-pyrano[3,2-c]pyridin-3-yl)-3-amino-6-methylthieno[2,3-b]pyridine-2-carboxamide]",1 to 50
13,"Cc1ccc2c(N)c(C(=O)N[C@@H]3Cc4ccc(N5CCNCC5)nc4C4(CC4)C3)sc2n1 (single isomer, unassigned) [Example 31-3, 3-amino-6-methyl-N-[(6′S)-2-(piperazin-1-yl)-6′,7′-dihydro-5′H-spiro[cyclopropane-1,8′-quinoline]-6′-yl]thieno[2,3-b]pyridine-2-carboxamide]",50 to 200
14,"Cc1ccc2c(N)c(C(=O)N[C@@H]3CCc4nc(N5CCNCC5)c(F)cc4C3)sc2n1 (single isomer, unassigned) [Example 30-2]",200 to 2000
15,"Cc1ccc2c(N)c(C(=O)N[C@H]3CCc4nc(N5CC6CC(C5)N6)ccc4C3)sc2n1 [Example 23-10, 3-amino-N-[(6S)-2-{3,6-diazabicyclo[3.1.1]heptan-3-yl}-5,6,7,8-tetrahydroquinolin-6-yl]-6-methylthieno[2,3-b]pyridine-2-carboxamide]",200 to 2000
16,"Cc1ccc2c(N)c(C(=O)N[C@H]3COc4cc(N5CCNCC5)cc(Cl)c4C3)sc2n1 [Example 48, (R)-3-amino-N-(5-chloro-7-(piperazin-1-yl)chroman-3-yl)-6-methylthieno[2,3-b]pyridine-2-carboxamide]",1 to 50
17,Cc1nc2sc(C(=O)N[C@H]3CCc4nc(N5CCNCC5)ccc4C3)c(N)c2s1 [Example 23-9],50 to 200
18,"C[C@@H](Nc1ccc(C(=O)N[C@H]2COc3cc(N4CCNCC4)ccc3C2)cn1)c1ccccc1 [Example 54, 6-(((R)-1-phenylethyl)amino)-N-((R)-7-(piperazin-1-yl)chroman-3-yl)nicotinamide]",> 2000
19,"CCc1cnc2sc(C(=O)N[C@H]3COc4cc(N5CCNCC5)ccc4C3)c(N)c2n1 [Example 36, (R)-7-amino-2-ethyl-N-(7-(piperazin-1-yl)chroman-3-yl)thieno[2,3-b]pyrazine-6-carboxamide]",200 to 2000
20,"Cc1ccc2c(N)c(C(=O)N[C@H]3CCc4nc(N5CCN[C@@H](C)C5)ccc4C3)sc2n1 (single isomer, unassigned) [Example 23-15]",1 to 50
21,"Cc1ccc2c(N)c(C(=O)N[C@H]3COc4cc([C@H]5CCNC[C@@H]5F)ccc4C3)sc2n1 [Example 80, 3-amino-N-((R)-7-((3R,4R)-3-fluoropiperidin-4-yl)chroman-3-yl)-6-methylthieno[2,3-b]pyridine-2-carboxamide]",1 to 50
22,"COC[C@@H]1CN(c2ccc3c(n2)CC[C@H](NC(=O)c2sc4nc(C)ccc4c2N)C3)C[C@@H]1N (single isomer, unassigned) [Example 24-1]",50 to 200
23,"Cc1ccc2c(N)c(C(=O)N[C@H]3COc4cc(N5CC6CNCC(C5)O6)c(F)c(F)c4C3)sc2n1 [Example 79, N-((3R)-7-(9-oxa-3,7-diazabicyclo[3.3.1]nonan-3-yl)-5,6-difluorochroman-3-yl)-3-amino-6-methylthieno[2,3-b]pyridine-2-carboxamide]",1 to 50
24,Nc1c(C(=O)N[C@H]2COc3cc(N4CCNCC4)ccc3C2)sc2nc(C3CC3)sc12 [Example 45],50 to 200
25,"Cc1ccc2c(N)c(C(=O)N[C@H]3COc4c(F)c(N5CCNCC5)cc(F)c4C3)sc2n1 [Example 55, (R)-3-amino-N-(5,8-difluoro-7-(piperazin-1-yl)chroman-3-yl)-6-methylthieno[2,3-b]pyridine-2-carboxamide]",1 to 50
26,"Cc1cnc2c(N)c(C(=O)N[C@H]3COc4cc(N5CCNCC5)c(C#N)c(F)c4C3)sc2n1 [Example 67, (R)-7-amino-N-(6-cyano-5-fluoro-7-(piperazin-1-yl)chroman-3-yl)-3-methylthieno[2,3-b]pyrazine-6-carboxamide]",1 to 50
27,"Cc1ccc2c(N)c(C(=O)N[C@H]3CCc4nc(N5CC6CCC(C5)N6)cc(F)c4C3)sc2n1 [Example 23-18, N-((6S)-2-(3,8-diazabicyclo[3.2.1]octan-3-yl)-4-fluoro-5,6,7,8-tetrahydroquinolin-6-yl)-3-amino-6-methylthieno[2,3-b]pyridine-2-carboxamide]",1 to 50
28,"Cc1ccc2c(N)c(C(=O)N[C@H]3COc4cc(N5C[C@H]6CNC[C@@H]6C5)ccc4C3)sc2n1 [Example 43, 3-amino-N-((R)-7-((3aR,6aR)-hexahydropyrrolo[3,4-c]pyrrol-2(1H)-yl)chroman-3-yl)-6-methylthieno[2,3-b]pyridine-2-carboxamide]",200 to 2000

# — US11524966B1 (Valo Early Discovery, Inc., priority 2017, dated 2022)
